Data published in US10456374B2, “Pyrrolidone carboxylic acid (PCA) for ophthalmic use” (Laboratori Baldacci S.p.A., priority 2015, dated 2019).

Experiments:
[1] = Ex vivo transcorneal permeation through isolated rabbit cornea; assay type: in vitro ADME; settings: donor RBB pH 7.6 with 0.02% w/w PCA and 0.04% w/w hyaluronic acid, 32° C.
Source text: Evaluation of PCA Ex Vivo Transcorneal Permeation of a Composition According to Example 2 Through Isolated Rabbit Cornea.
For the determination of ex vivo corneal permeability, rabbit corneas obtained after proptosis of the eye, performed immediately after the animal euthanization, were used. The rabbits were New Zealand albino rabbits (n=3) and were euthanized by intravenous injection of Pentothal sodium (Farmaceutici Gellini, Aprilia, Italy). After the eyes were proptosed, the cornea, with 2 mm of sclera, was immediately excised and mounted in a perfusion apparatus. During the preparation, particular attention was paid to prevent the exfoliation of the corneal epithelium and its contact with any solid surfaces. […]
After the permeation experiment start, at appropriate intervals of time (15, 30, 60, 90, 120, 180 and 240 minutes), 0.50 mL of solution were withdrawn from the receiving compartment (endothelial side) and replaced with fresh RBB. At the end of the experiment, the entire donor phase was collected and submitted to quantitative determination of the active ingredient in a similar manner as provided for the samples of the receiving phase.
Quantitative analysis of PCA was performed by HPLC using a C18 reverse phase column C18 (Bondclone 10 μm 300×3.9 mm), and the eluent was a 98:2 mixture buffer solution to acetonitrile. […]

[2] = Residence in the ocular tissue; settings: stated in the description, no test described
[3] = Pescina et al, 2015; cited from earlier work

Row | Papp at 240 min, 0.02 % w/w ([1]; New Zealand albino, isolated rabbit cornea, read-out: PCA corneal permeability) | PCA found in the receiving compartment, of the amount present in the donor compartment ([1]; end of the experiment (240 minutes)) | Period of time PCA remains in the ocular tissue [2] | Structure (SMILES) | permeability through porcine cornea [3]
1 | 3.95 ×10⁻⁶ cm/s | 0.051 % w/w | greater than 3 hours | O=C1CCC(C(=O)O)N1 (stereo not shown) [PCA, Pyrrolidone carboxylic acid] | 
2 |  |  |  | O=C1OC2(c3ccc(O)cc3Oc3cc(O)ccc32)c2ccccc21 [sodium fluorescein] | 0.05 10^−5 cm/s
